Data published in ChEMBL document CHEMBL3045260, “Synthesis, anti-microbial evaluation, and QSAR studies of 4-amino-3-hydroxy-naphthalene-1-sulfonic acid derivatives” (2012).
Values after ≈ are worked out from the molar mass of the structure shown.

Key:
Format in all cases: functional
Staphylococcus aureus [1] = test: Bactericidal activity against Staphylococcus aureus MTCC 2901
Bacillus subtilis [2] = test: Ratio of MBC to MIC for Bacillus subtilis MTCC 2063
Aspergillus niger [3] = test: Antifungal activity against Aspergillus niger MTCC 8189 after 7 days by tube dilution method
Staphylococcus aureus [4] = test: Ratio of MBC to MIC for Staphylococcus aureus MTCC 2901
Aspergillus niger [5] = test: Ratio of MFC to MIC for Aspergillus niger MTCC 8189
Escherichia coli [6] = test: Antibacterial activity against Escherichia coli MTCC 1652 after 24 hr by tube dilution method
Bacillus subtilis [7] = test: Antibacterial activity against Bacillus subtilis MTCC 2063 after 24 hr by tube dilution method
Candida albicans [8] = test: Ratio of MFC to MIC for Candida albicans MTCC 227
Aspergillus niger [9] = test: Fungicidal activity against Aspergillus niger MTCC 8189
Bacillus subtilis [10] = test: Bactericidal activity against Bacillus subtilis MTCC 2063
Candida albicans [11] = test: Fungicidal activity against Candida albicans MTCC 227
Escherichia coli [12] = test: Ratio of MBC to MIC for Escherichia coli MTCC 1652
Escherichia coli [13] = test: Bactericidal activity against Escherichia coli MTCC 1652
Candida albicans [14] = test: Antifungal activity against Candida albicans MTCC 227 after 48 hr by tube dilution method
Staphylococcus aureus [15] = test: Antibacterial activity against Staphylococcus aureus MTCC 2901 after 24 hr by tube dilution method

Structure (SMILES)	MBC (Staphylococcus aureus [1]) [mM]	Ratio (Bacillus subtilis [2])	-logMIC (Aspergillus niger [3])	Ratio (Staphylococcus aureus [4])	Ratio (Aspergillus niger [5])	-logMIC (Escherichia coli [6])	-logMIC (Bacillus subtilis [7])	Ratio (Candida albicans [8])	MFC (Aspergillus niger [9]) [mM]	MBC (Bacillus subtilis [10]) [mM]	MFC (Candida albicans [11]) [mM]	Ratio (Escherichia coli [12])	MBC (Escherichia coli [13]) [mM]	-logMIC (Candida albicans [14])	-logMIC (Staphylococcus aureus [15])
O=CCCC/C=N/c1c(O)cc(S(=O)(=O)O)c2ccccc12	> 0.13	3	1.41	3	3	1.41	1.41	3	0.03 (≈ 9.64 µg/mL)	> 0.13	> 0.13	3	> 0.13	1.41	1.11
O=S(=O)(O)c1cc(O)c(/N=C/C=C/c2ccccc2)c2ccccc12	> 0.14	3	1.45	3	3	1.45	1.45	3	0.14 (≈ 49.5 µg/mL)	> 0.14	> 0.14	3	> 0.14	1.45	1.15
O=S(=O)(O)c1cc(O)c(/N=C/c2ccccc2Cl)c2ccccc12	> 0.14	3	1.46	3	3	1.46	1.46	3	> 0.14	> 0.14	> 0.14	3	> 0.14	1.46	1.16
O=S(=O)(O)c1cc(O)c(/N=C/c2cccc(Cl)c2)c2ccccc12	0.14 (≈ 50.7 µg/mL)	3	1.46	3	3	1.46	1.46	3	> 0.14	> 0.14	> 0.14	3	> 0.14	1.46	1.16
COc1ccccc1/C=N/c1c(O)cc(S(=O)(=O)O)c2ccccc12	> 0.13	3	1.46	3	3	1.46	1.46	3	> 0.13	> 0.13	> 0.13	3	> 0.13	1.46	1.16
COc1cccc(/C=N/c2c(O)cc(S(=O)(=O)O)c3ccccc23)c1	0.12 (≈ 42.9 µg/mL)	3	1.46	3	3	1.46	1.46	3	> 0.12	> 0.12	> 0.12	3	> 0.12	1.46	1.16
COc1ccc(/C=N/c2c(O)cc(S(=O)(=O)O)c3ccccc23)cc1OC	> 0.15	3	1.49	3	3	1.49	1.49	3	> 0.15	> 0.15	> 0.15	3	> 0.15	1.49	1.19
COc1cc(/C=N/c2c(O)cc(S(=O)(=O)O)c3ccccc23)cc(OC)c1OC	> 0.15	3	1.52	3	3	1.52	1.52	3	> 0.15	> 0.15	> 0.15	3	> 0.15	1.52	1.22
O=S(=O)(O)c1cc(O)c(/N=C/c2ccccc2)c2ccccc12	> 0.13	3	1.42	3	3	1.42	1.42	3	> 0.13	> 0.13	> 0.13	3	> 0.13	1.42	1.12
O=S(=O)(O)c1cc(O)c(/N=C/c2cccc(O)c2)c2ccccc12	> 0.13	3	1.44	3	3	1.44	1.44	3	0.13 (≈ 44.6 µg/mL)	> 0.13	> 0.13	3	> 0.13	1.44	1.14
COc1cccc(/C=N/c2c(O)cc(S(=O)(=O)O)c3ccccc23)c1O	0.14 (≈ 52.3 µg/mL)	3	1.48	3	3	1.48	1.48	3	> 0.14	> 0.14	> 0.14	3	> 0.14	1.48	1.17
CCOc1cc(/C=N/c2c(O)cc(S(=O)(=O)O)c3ccccc23)ccc1O	0.13 (≈ 50.4 µg/mL)	3	1.49	3	3	1.49	1.49	3	0.03 (≈ 11.6 µg/mL)	> 0.13	> 0.13	3	> 0.13	1.49	1.19
COc1cc(/C=N/c2c(O)cc(S(=O)(=O)O)c3ccccc23)ccc1O	0.16 (≈ 59.7 µg/mL)	3	1.48	3	3	1.48	1.48	3	0.16 (≈ 59.7 µg/mL)	> 0.16	> 0.16	3	> 0.16	1.48	1.17
O=Cc1ccc(/C=N/c2c(O)cc(S(=O)(=O)O)c3ccccc23)cc1	0.14 (≈ 49.8 µg/mL)	3	1.45	3	3	1.45	1.45	3	0.14 (≈ 49.8 µg/mL)	> 0.14	> 0.14	3	> 0.14	1.45	1.15
O=[N+]([O-])c1cccc(/C=N/c2c(O)cc(S(=O)(=O)O)c3ccccc23)c1	> 0.14	3	1.47	3	3	1.47	1.47	3	> 0.14	> 0.14	> 0.14	3	> 0.14	1.47	1.17
O=S(=O)(O)c1cc(O)c(/N=C/c2ccc(Cl)cc2)c2ccccc12	> 0.14	3	1.16	3	3	1.16	1.16	3	> 0.14	> 0.14	> 0.14	3	> 0.14	1.16	1.16
O=S(=O)(O)c1cc(O)c(/N=C/c2ccc(Cl)cc2Cl)c2ccccc12	> 0.14	3	1.5	3	3	1.5	1.5	3	> 0.14	> 0.14	> 0.14	3	> 0.14	1.5	1.2
COc1ccc(/C=N/c2c(O)cc(S(=O)(=O)O)c3ccccc23)cc1	> 0.13	3	1.46	3	3	1.46	1.46	3	0.13 (≈ 46.5 µg/mL)	> 0.13	> 0.13	3	> 0.13	1.46	1.16
OC(Cn1cncn1)(Cn1cncn1)c1ccc(F)cc1F [FLUCONAZOLE]			2.64						0.04 (≈ 12.3 µg/mL)					2.64	
CCn1cc(C(=O)O)c(=O)c2cc(F)c(N3CCNCC3)cc21 [NORFLOXACIN]	0.019 (≈ 6.07 µg/mL)					2.61	2.61			0.019 (≈ 6.07 µg/mL)			0.019 (≈ 6.07 µg/mL)		2.61
